{
  "source": "paper PMC11087525",
  "about": "(Scientific Reports, 2024)",
  "key": {"[1]": {"system": "human neurons"}, "[2]": {"system": "pericytes", "settings": "human, 24 h, 1000 ng/mL"}, "[3]": {"system": "pericytes", "experiment": "In-vitro drug uptake by human brain pericytes"}, "[4]": {"system": "Human brain primary astrocytes", "experiment": "In-vitro drug uptake by human brain primary astrocytes"}, "[5]": {"settings": "rats"}, "[6]": {"system": "SARS-CoV-2 USA_WAI/2020 isolate", "excerpt": "Therefore, the goal for the CSF was set to achieve the same exposure conditions as for plasma."}, "[7]": {"system": "SARS-CoV-2 USA_WAI/2020 isolate", "settings": "cited from earlier work; for plasma EC90Adjusted concentration: adjusted for plasma protein binding"}, "[8]": {"settings": "cited from earlier work"}, "[9]": {"settings": "cited from earlier work", "remark": "listed apart in the source"}, "[10]": {"settings": "cited from earlier work", "remark": "listed apart in the source"}, "[11]": {"settings": "cited from earlier work", "remark": "listed apart in the source"}, "[12]": {"set-up": "method as in earlier work", "settings": "cited from earlier work"}, "[13]": {"experiment": "in vivo", "settings": "male, Sprague-Dawley, rat; for Tmax: Average Tmax"}, "[14]": {"experiment": "in vivo", "settings": "male, Sprague-Dawley, rat, Median (IQR), rats"}, "[15]": {"system": "human neurons", "experiment": "In-vitro drug uptake by human neurons", "settings": "for uptake of NMR by neurons (mean ± SD): 24-h incubation"}, "[16]": {"settings": "RTV alone, 1000 ng/mL, 24-h incubation"}, "[17]": {"settings": "rats, oral 30 mg/kg NMR + 10 mg/kg RTV twice daily, 5 days"}, "[18]": {"settings": "rats, oral NMR/RTV twice daily, 5 days"}, "[19]": {"settings": "in the presence or absence of RTV"}},
  "note": "Where “and” joins values, the source holds several entries; their conditions need not be identical. Equal entries are not always repeated. Where two headings read alike, the source gives them in different places.",
  "data": [
    {"smiles": "CC(C)c1nc(CN(C)C(=O)N[C@H](C(=O)N[C@@H](Cc2ccccc2)C[C@H](O)[C@H](Cc2ccccc2)NC(=O)OCc2cncs2)C(C)C)cs1", "note": "[RTV, ritonavir]", "values": [
      {"measurement": "neuronal entry of RTV", "setting": "[1]", "value": "moderate"},
      {"measurement": "uptake of RTV by pericytes (uptake/administered)", "setting": "[2]", "value": 20.2, "unit": "%"},
      {"measurement": "RTV uptake in pericytes (mean ± SD)", "setting": "[3]; [16]", "value": 202.6, "unit": "ng/mL"},
      {"measurement": "RTV uptake in astrocytes (mean ± SD)", "setting": "[4]; [16]", "value": 419.7, "unit": "ng/mL"}
    ]},
    {"smiles": "CC(C)(C)[C@H](NC(=O)C(F)(F)F)C(=O)N1C[C@H]2[C@@H]([C@H]1C(=O)N[C@H](C#N)C[C@@H]1CCNC1=O)C2(C)C", "note": "[NMR, nirmatrelvir]", "values": [
      {"measurement": "Cmax_0-5 days Plasma, Median (IQR)", "setting": "all rats", "value": "2240 (1860–4030) ng/mL"},
      {"measurement": "%CSF Concentrations ≥ 3xEC90Un_adjusted, Median (IQR)", "setting": "all rats with CSF, 3xEC90 271.5 ng/mL unadjusted for protein binding", "value": "16 (0 -20.5) % and 16%"},
      {"measurement": "Cmax_0-5 days Plasma, Geometric mean (Geometric SD factor)", "setting": "excluding rat 7, calculated to compare to clinical data", "value": 2480, "unit": "ng/mL"},
      {"measurement": "CSF Cmax, median", "setting": "rats", "value": 410, "unit": "ng/mL"},
      {"measurement": "% Penetration by Cmax CSF/Plasma, Median (IQR)", "setting": "rats with CSF sampled", "value": 18.11, "unit": "%"},
      {"measurement": "Cmax_0-5 days CSF, Median (IQR)", "setting": "rats with CSF sampled", "value": "410 (200–880) ng/mL"},
      {"measurement": "CL (NMR clearance), median from final model", "setting": "[17]", "value": 0.23, "unit": "L/h"},
      {"measurement": "Ka, median from final model", "setting": "[17]", "value": 0.51, "unit": "h⁻¹"},
      {"measurement": "K23 (rate constant to CSF from central compartment), median", "setting": "[18]", "value": 0.05, "unit": "h⁻¹"},
      {"measurement": "Vc (volume central compartment), median", "setting": "[18]", "value": 1.05, "unit": "L"},
      {"measurement": "Vcsf (volume cerebrospinal fluid compartment), median", "setting": "[18]", "value": 3.46, "unit": "L"},
      {"measurement": "Brain NMR concentration, Median (IQR)", "setting": "[5]", "value": "23.83 (10.94-46.85) ng/g"},
      {"measurement": "Heart NMR concentration, Median (IQR)", "setting": "[5]", "value": "61.72 (24.44-111.5) ng/g"},
      {"measurement": "Kidney NMR concentration, Median (IQR)", "setting": "[5]", "value": "97.84 (43.28-297.3) ng/g"},
      {"measurement": "Liver NMR concentration, Median (IQR)", "setting": "[5]", "value": "110 (35.65-419.5) ng/g"},
      {"measurement": "Lung NMR concentration, Median (IQR)", "setting": "[5]", "value": "67.86 (25.01-111.3) ng/g"},
      {"measurement": "PBMC NMR concentration, Median (IQR)", "setting": "[5]", "value": "61.44 (31.7-345.2) ng/mL"},
      {"measurement": "brain NMR concentrations compared to 3xEC90", "setting": "[5]; adjusted or unadjusted for protein binding", "value": "all < 3xEC90 regardless of adjustment for protein binding"},
      {"measurement": "3xEC90 PD value for CSF", "setting": "[6]", "value": 271.5, "unit": "ng/mL"},
      {"measurement": "3xEC90 PD value for plasma and tissue", "setting": "[6]", "value": 876, "unit": "ng/mL"},
      {"measurement": "3xEC90 plasma protein adjusted in plasma", "setting": "[6]", "value": 0.876, "unit": "mg/L"},
      {"measurement": "3xEC90 unadjusted in CSF", "setting": "[6]", "value": 0.2715, "unit": "mg/L"},
      {"measurement": "plasma EC90Adjusted concentration", "setting": "[7]; bronchial epithelial cells infected with USA_WAI/2020 isolate", "value": 0.292, "unit": "µg/mL"},
      {"measurement": "plasma EC90Adjusted concentration", "setting": "[7]", "value": 585, "unit": "nM"},
      {"measurement": "EC90Un_adjusted", "setting": "[7]; unadjusted for protein binding", "value": 0.0905, "unit": "µg/mL"},
      {"measurement": "EC90Un_adjusted for CSF", "setting": "[7]; unadjusted for protein binding", "value": 0.0905, "unit": "µg/mL"},
      {"measurement": "lipophilicity coefficient (LogP)", "setting": "[8]", "value": 1.68},
      {"measurement": "passive apparent permeability (Papp)", "setting": "[9]", "value": 1.76, "unit": "×10⁻⁶ cm/s"},
      {"measurement": "participants with NMR trough concentrations ≥ 3 × EC90", "setting": "[10]; EPIC-HR, FDA review", "value": 95, "unit": "%"},
      {"measurement": "NMR Ka reported by others", "setting": "[10]", "value": 0.55, "unit": "h⁻¹"},
      {"measurement": "half-life for NMR in the presence of RTV in humans", "setting": "[10]", "value": 6.05, "unit": "h"},
      {"measurement": "healthy human geometric mean AUC0-12 h", "setting": "[10]; healthy volunteers", "value": 23010, "unit": "ng·h/mL"},
      {"measurement": "healthy human geometric mean Cmax", "setting": "[10]; healthy volunteers", "value": 2210, "unit": "ng/mL"},
      {"measurement": "NMR half-life in other oral rat PK studies", "setting": "[11]; 10 mg/kg oral, rat", "value": 4, "unit": "h"},
      {"measurement": "F literature values estimated in rats for NMR", "setting": "[11]", "value": "34–50%"},
      {"measurement": "Tmax in other rodent models, mean", "setting": "[11]", "value": 1.5, "unit": "h"},
      {"measurement": "protein bound", "setting": "[12]", "value": 69, "unit": "%"},
      {"measurement": "Cmax", "setting": "[13]", "value": 2480, "unit": "ng/mL"},
      {"measurement": "Kp", "setting": "[13]; % Penetration by AUC CSF/Plasma, Median (IQR), rats with CSF sampled", "value": 0.152},
      {"measurement": "Kp", "setting": "[13]; % Penetration by Cmax CSF/Plasma, Median (IQR), rats with CSF sampled", "value": 0.181},
      {"measurement": "k el", "setting": "[13]; po, 30 mg/kg", "value": "6.67e-05", "unit": "s⁻¹"},
      {"measurement": "AUC", "setting": "[13]; po, 30 mg/kg, AUC0-endoftreatment CSF, Median (IQR), rats with CSF sampled", "value": 17600, "unit": "ng·h/mL"},
      {"measurement": "AUC", "setting": "[13]; po, 30 mg/kg, AUC0-endoftreatment Plasma, Median (IQR), all rats", "value": 114000, "unit": "ng·h/mL"},
      {"measurement": "AUC", "setting": "[13]; po, 30 mg/kg, AUC0-endoftreatment Plasma, Median (IQR), excluding rat 7", "value": 128000, "unit": "ng·h/mL"},
      {"measurement": "AUC", "setting": "[13]; po, 30 mg/kg, AUCdaily_average CSF, Median (IQR), rats with CSF sampled", "value": 3520, "unit": "ng·h/mL"},
      {"measurement": "AUC", "setting": "[13]; po, 30 mg/kg, AUCdaily_average Plasma, Geometric mean (Geometric SD factor), excluding rat 7, calculated to compare to clinical data", "value": 20200, "unit": "ng·h/mL"},
      {"measurement": "AUC", "setting": "[13]; po, 30 mg/kg, AUCdaily_average Plasma, Median (IQR), all rats", "value": 22800, "unit": "ng·h/mL"},
      {"measurement": "AUC", "setting": "[13]; po, 30 mg/kg, AUCdaily_average Plasma, Median (IQR), excluding rat 7", "value": 25600, "unit": "ng·h/mL"},
      {"measurement": "Tmax", "setting": "[13]; po, 30 mg/kg, Mean (SD), all rats, calculated to compare to literature values", "value": 1.84, "unit": "h"},
      {"measurement": "Tmax", "setting": "[13]; po, 30 mg/kg, Median (IQR), all rats", "value": 1.68, "unit": "h"},
      {"measurement": "half-life", "setting": "[13]; po, 30 mg/kg, Half-life, Median (IQR), all rats, NMR in the presence of RTV", "value": 2.55, "unit": "h"},
      {"measurement": "Kp", "setting": "[13]; po, NMR CSF concentrations as % of those in plasma, ratio of Cmax or AUC, oral NMR/RTV twice daily for five days", "value": "0.15 to 0.18"},
      {"measurement": "Kp", "setting": "[14]; AR Brain", "value": 0.15},
      {"measurement": "Kp", "setting": "[14]; AR Kidney", "value": 1.71},
      {"measurement": "Kp", "setting": "[14]; AR Liver", "value": 2.71},
      {"measurement": "Kp", "setting": "[14]; AR Lung", "value": 0.89},
      {"measurement": "Kp", "setting": "[14]; AR PBMC", "value": 0.998},
      {"measurement": "uptake of NMR by neurons (mean ± SD)", "setting": "[15]; NMR alone, 2200 ng/mL", "value": 34.7, "unit": "ng/mL"},
      {"measurement": "uptake of NMR by neurons (mean ± SD)", "setting": "[15]; in the presence of RTV (1000 ng/mL), NMR 2200 ng/mL", "value": "122.8 ± 7.8", "unit": "ng/mL"},
      {"measurement": "maximum NMR uptake (uptake/administered)", "setting": "[15]; neurons in the presence of RTV, 2200 ng/mL administered", "value": 5.5, "unit": "%"},
      {"measurement": "uptake of NMR by pericytes", "setting": "[3]; [19]", "value": "< 2", "unit": "%"},
      {"measurement": "difference in NMR uptake, NMR alone or with RTV", "setting": "[3]; pericytes", "value": "No significant differences"},
      {"measurement": "difference in NMR uptake, NMR alone or with RTV", "setting": "[4]; astrocytes", "value": "No significant differences"},
      {"measurement": "uptake of NMR by astrocytes", "setting": "[4]; [19]", "value": "< 2", "unit": "%"}
    ]}
  ]
}
